Experimental findings from the NIST ThermoML archive (doi:10.1016/j.jct.2012.04.025) are described below.

± gives the expanded uncertainty stated by the source.

This series is described as follows: molar heat capacity at constant pressure. As to conditions: 298.15 K; 101.33 kPa; Liquid; High-precision drop calorimeter.
Turning to `CCn1cc[n+](C)c1.O=S(=O)([N-]S(=O)(=O)C(F)(F)F)C(F)(F)F`, the “molar heat capacity at constant pressure” value is reported as 504.8 ± 5 J/K/mol.

Take `CCCC[n+]1ccn(C)c1.O=S(=O)([N-]S(=O)(=O)C(F)(F)F)C(F)(F)F`: the “molar heat capacity at constant pressure” value is reported as 565.9 ± 5 J/K/mol.

Take `CCCCCCCCCCn1cc[n+](C)c1.O=S(=O)([N-]S(=O)(=O)C(F)(F)F)C(F)(F)F`: the “molar heat capacity at constant pressure” value was 754.5 ± 7 J/K/mol.

For the compound `CCCCCn1cc[n+](C)c1.O=S(=O)([N-]S(=O)(=O)C(F)(F)F)C(F)(F)F`, the “molar heat capacity at constant pressure” value worked out at 595.6 ± 6 J/K/mol.

On to `CCCn1cc[n+](C)c1.O=S(=O)([N-]S(=O)(=O)C(F)(F)F)C(F)(F)F`, for which the “molar heat capacity at constant pressure” value turned out to be 534.9 ± 5 J/K/mol.

On to `CCCCCCCCCCCCn1cc[n+](C)c1.O=S(=O)([N-]S(=O)(=O)C(F)(F)F)C(F)(F)F`, for which the “molar heat capacity at constant pressure” value is given as 820.2 ± 8 J/K/mol.

As for `CCCCCC[n+]1ccn(C)c1.O=S(=O)([N-]S(=O)(=O)C(F)(F)F)C(F)(F)F`, the “molar heat capacity at constant pressure” value stood at 629.4 ± 6 J/K/mol.

With `CCCCCCCn1cc[n+](C)c1.O=S(=O)([N-]S(=O)(=O)C(F)(F)F)C(F)(F)F`, the “molar heat capacity at constant pressure” value was found to be 659.2 ± 6 J/K/mol.

Turning to `CCCCCCCCn1cc[n+](C)c1.O=S(=O)([N-]S(=O)(=O)C(F)(F)F)C(F)(F)F`, the “molar heat capacity at constant pressure” value is 690.2 ± 7 J/K/mol.
